Experimental data reported in US5464865A, “4-aryl- and 4-arylthio-5-hydroxy-2(5H)-furanones as inhibitors of phospholipase A2” (Ortho Pharmaceutical Corporation, priority 1993, dated 1995).

Key:
PLA2 = details: literature; cited from earlier work
[1] = biological target: T1, human platelet phospholipase A2 (Homo sapiens, UniProt P14555); test: Inhibition of human platelet phospholipase A2 (14C-oleate E. coli substrate); format: biochemical; details: for IC50: pH 7.0, 37°, 60 min incubation, read-out: Inhibition of PLA2, IC50; for inhibition at 50 µM: read-out: Inhibition of PLA2, % Inhibition @ 50 μM
T1 construct: a preparation of human platelet phospholipase A2; from tissue; host or cells: human platelets
T1 sequence (P14555 21-144): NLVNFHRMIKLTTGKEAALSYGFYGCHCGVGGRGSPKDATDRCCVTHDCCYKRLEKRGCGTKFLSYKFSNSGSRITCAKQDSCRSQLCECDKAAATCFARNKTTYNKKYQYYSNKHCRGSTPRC
Description: The activity of the compounds of the invention against phospholipase A2 is determined using a preparation of human platelet phospholipase A2 with a specific activity of 180 nmol/min/mg as the enzyme source. Polypropylene 15-ml test tubes are utilized as the reaction vessels. All drug samples are run in duplicate, with "blank" and "control" (no test compound) groups run in triplicate. […] Test compounds are dissolved in DMSO, and diluted to a projected final concentration of either 50 or 10 μM in 550 μl HEPES buffer at pH 7.0. A 1:7 dilution of human platelet PLA2 in HEPES buffer (5 μl) is added to each test tube, followed by gentle vortexing for 3 seconds. The reaction tubes containing drug, buffer, and enzyme are preincubated for 15 min at 37°, followed by the addition of 25 μl of ^14 C-oleate E. coli substrate. Details regarding this substrate may be found in a publication by S. Ghosh and R. Franson, Biochem. Cell. Biol., 70, 43 (1992), and references therein.
The tubes are immediately vortexed at moderate speed for 3 sec, followed by a 60 min incubation at 37° in a shaking water bath. The reaction is stopped by the addition of 3 ml of a 1:2 chloroform-methanol mixture. Additional water (1.5 ml) and chloroform (1.0 ml) are added, followed by vortexing. The lower phase is removed with a polypropylene transfer pipette, and transferred to a 13×100 mm polypropylene test tube. The organic solvent is evaporated with a stream of nitrogen, the residue is redissolved in 30 μl of a 9:1 chloroform-methanol mixture, and the solution is spotted on a channeled polyester-backed silica gel TLC plate, such as those available under the trade name PE SIL G available from Whatman Inc, Clifton, N.J.
The plate is developed with an 80:20:1 mixture of petroleum ether-diethyl ether-acetic acid. […] The plate is scored above the origin, cut along the score with scissors, and the reactant (origin) and product portions of each channel are put into separate scintillation vials. To each vial is added a scintillation cocktail (15 ml), preferably that sold under the trademark ECOLUME by ICN Biomedicals, Irvine Calif. The vials are shaken vigorously for 5 sec, and the radioactive ^14 C in each vial is measured with a scintillation counter, which provides the counts-per-minute (cpm) for each sample. The obtained cpm values are corrected for the "blank" values.
The percentage of phospholipid hydrolyzed is calculated by the formula:
Phospholipid converted=100×cpm products / (cpm products+cpm
The inhibition of phospholipase A2 by the test compounds is expressed as a percent inhibition relative to the control group:
% Inhibition=[…]

[2] = system: TPA-induced inflammation in the mouse ear; test: Topical anti-inflammatory activity: TPA-induced inflammation (edema) in the mouse ear; format: in vivo, mouse (male CD-1); details: for inhibition in vivo at 100 µg/ear: Mus musculus, @ 100 μg, 5-6 h after TPA; for Inhibition of ear edema, IC50: multiple-dose experiment, dose for 50% inhibition of weight gain
Description: The topical anti-inflammatory activity of the compounds is determined by measuring the degree of inhibition of TPA-induced inflammation in the mouse ear, using essentially the procedure of C. Van Arman, Clin. Pharmacol. Ther., 16, 900 (1974). Male CD-1 mice are used at seven to nine weeks of age. 12-O-tetradecanoylphorbol acetate ([…] in 20 μl of acetone) is dispensed onto the dorsum of the left ear of each mouse, and the right ear is left untreated. Ten mice so treated serve as the control group. […]
After five to six hours, the animals are sacrificed by CO2 inhalation, the ears are removed, and 7 mm circular punch biopsies of are taken from each ear and weighed. The difference in biopsy weight between treated and untreated ears is determined, and the degree of anti-inflammatory activity is expressed in terms of the percent inhibition of ear weight increase relative to the control group. In multiple-dose experiments, varying amounts of the compound to be tested are applied along with the TPA and the results are expressed as the ED50, the dose at which a 50% inhibition of weight gain is observed.

| IC50 [1] | inhibition at 50 µM [1] | Inhibition of ear edema, IC50 [2] | SMILES | inhibition of PLA2 (PLA2) | nature of PLA2 inhibition (PLA2) | inhibition in vivo at 100 µg/ear [2] |
| --- | --- | --- | --- | --- | --- | --- |
| – | – | – | CC1=C(CC/C(C)=C/CCC2=CCC(C3=CC(=O)OC3O)OC2O)C(C)(C)CCC1 (stereo not shown) [Manoalide, manoalide] | potent inhibitor of PLA2 | irreversible nature of PLA2 inhibition | – |
| 8 µM | 78% | – | CC(C)=CCC/C(C)=C/CSc1ccc(C2=CC(=O)OC2O)cc1 (stereo not shown) [Example 23, (E)-5-Hydroxy-4-(4-(3,7-dimethyl-2,6-octadienyl)thio)phenyl-2(5H)furanone] | – | – | 56% |
| 9 µM | 100% | 106 µg | CC1=C(C/C=C(\C)COc2ccc(C3=CC(=O)OC3O)cc2)C(C)(C)CCC1 (stereo not shown) [Example 16, (E)-5-Hydroxy-4-(4-(2-methyl-4-(2,6,6-trimethyl-1-cyclohexen-1-yl)-2-butenyloxy)phenyl)-2(5H)-furanone] | – | – | 43% |
| 24 µM | 84% | – | O=C1C=C(c2ccc(/C=C/CCc3ccccc3)cc2)C(O)O1 (stereo not shown) [Example 36, (E)-5-Hydroxy-4-(4-(4-phenyl-1-butenyl)phenyl)-2(5H)-furanone] | – | – | 37% |
| – | 87% | – | CC1=C(CCCC/C=C(\C)COc2ccc(C3=CC(=O)OC3O)cc2)C(C)(C)CCC1 (stereo not shown) [Example 14, (E)-5-Hydroxy-4-(4-(2-methyl-7-(2,6,6-trimethyl-1-cyclohexen-1-yl)-2-heptenyloxy)phenyl)-2(5H)-furanone] | – | – | 4% |
| 5 µM | 98% | – | CCCCCCCCSc1ccc(C2=CC(=O)OC2O)cc1 (stereo not shown) [Example 19, 5-Hydroxy-4-(4-(octylthio)phenyl)-2(5H)furanone] | – | – | 20% |
| 19 µM | 67% | 37 µg | O=C1C=C(c2ccc(C#Cc3ccccc3)cc2)C(O)O1 (stereo not shown) [Example 55, 5-Hydroxy-4-(4-(2-phenylethynyl)phenyl)-2(5H)-furanone] | – | – | 79% |
| – | 0% | – | C=CCc1ccc(C2=CC(=O)OC2O)cc1O (stereo not shown) [Example 41, 5-Hydroxy-4-(3-hydroxy-4-(2-propenyl)phenyl)-2(5H)-furanone] | – | – | 64% |
| 5 µM | 100% | – | CCCCCCC#Cc1ccc(C2=CC(=O)OC2O)cc1 (stereo not shown) [Example 54, 5-Hydroxy-4-(4-(1-octynyl)phenyl)-2(5H)-furanone] | – | – | 9% |
| 20 µM | 93% | – | C=CC(CCCCC)Oc1ccc(C2=CC(=O)OC2O)cc1 (stereo not shown) [Example 37, 5-Hydroxy-4-(4-((1-ethenylhexyl)oxy)phenyl)-2(5H)-furanone] | – | – | 34% |
| 5 µM | 96% | – | CCCCCCCCOc1ccc(SC2=CC(=O)OC2O)cc1 (stereo not shown) [Example 64, 5-Hydroxy-4-(4-(octyloxy)phenylthio)-2(5H)-furanone] | – | – | 48% |
| 22 µM | 73% | – | O=C1C=C(c2ccc(OCCCCCCOc3ccc4ccccc4c3)cc2)C(O)O1 (stereo not shown) [Example 13, 5-Hydroxy-4-[4-(6-(2-naphthyloxy)hexyloxy)phenyl]-2(5H)furanone] | – | – | 0% |
| 8 µM | 100% | 87 µg | CC1=C(C/C=C(\C)COc2cccc(C3=CC(=O)OC3O)c2)C(C)(C)CCC1 (stereo not shown) [Example 17, (E)-5-Hydroxy-4-(3-(2-methyl-4-(2,6,6-trimethyl-1-cyclohexen-1-yl)-2-butenyloxy)phenyl)-2(5H)-furanone] | – | – | 51% |
| – | 85% | 27 µg | CCCCC/C=C/Cc1cc(C2=CC(=O)OC2O)ccc1O (stereo not shown) [Example 38, (E)-5-Hydroxy-4-(4-hydroxy-3-(2-octenyl)phenyl)-2(5H)-furanone] | – | – | 78% |
| 5 µM | 100% | – | CCCCCC/C=C/c1ccc(C2=CC(=O)OC2O)cc1 (stereo not shown) [Example 35, (E)-5-Hydroxy-4-(4-(1-octenyl)phenyl)-2(5H)-furanone] | – | – | 30% |
| – | 30% | – | O=C1C=C(c2cccc(Oc3ccccc3)c2)C(O)O1 (stereo not shown) [Example 43, 5-Hydroxy-4-(3-phenoxyphenyl)-2(5H)-furanone] | – | – | 52% |

| SMILES | IC50 [1] | inhibition at 50 µM [1] | Inhibition of ear edema, IC50 [2] | inhibition of PLA2 (PLA2) | nature of PLA2 inhibition (PLA2) | inhibition in vivo at 100 µg/ear [2] |
| --- | --- | --- | --- | --- | --- | --- |
| O=C1C=C(c2ccccc2)C(O)O1 (stereo not shown) [Example 42, 5-Hydroxy-4-phenyl-2(5H)-furanone] | – | 9% | – | – | – | 45% |
